In US20150126467A1, “USE OF ALGINATE OLIGOMERS TO ENHANCE THE EFFECTS OF ANTIFUNGAL AGENTS” (AlgiIPharma AS, priority 2011, published 2015):
Like-named read-outs stand apart in the source and are kept apart here.

What was measured:
[1] = test system: C. parapsillosis ATCC 22019T; experiment: Standard MIC testing in RPMI medium (Example 3); assay type: cell-based, Candida parapsilosis; settings: Lodderomyces parapsilosis, ATCC2019, 48 h, C. Parapsillosis ATCC 2019^T, read-out: Minimum Inhibitory Concentration (MIC)
Description: (§4) Following retrieval from −80° C. storage, fungal colonies were grown on blood agar with 5% sheep blood and were used to inoculate tryptone soya broth (TSB) for overnight growth. […] Fungal cultures at 0.5 McFarland standard were diluted ten-fold in RPMI medium and 5 μl added to the media containing wells of the microtiter plates. Plates were wrapped in parafilm and incubated at 34° C. for 48 hours. MIC values were determined as the lowest concentration at which there was no visible growth.

[2] = test system: C. krusei 141/03 (candidosis); experiment: Standard MIC testing in RPMI medium (Example 3); assay type: cell-based, Candida krusei; settings: Pichia kudriavzevii, 48 h, read-out: Minimum Inhibitory Concentration (MIC)
Description: as §4

[3] = test system: C. krusei 249/03(2) (ulceration); experiment: Standard MIC testing in RPMI medium (Example 3); assay type: cell-based, Candida krusei; settings: 48 h
Description: as §4

[4] = test system: C. lusitaniae 994/01(2) (candidosis); experiment: Standard MIC testing in RPMI medium (Example 3); assay type: cell-based, Candida lusitaniae; settings: 48 h
Description: as §4

[5] = test system: C. tropicalis 12 (vaginal); experiment: Standard MIC testing in RPMI medium (Example 3); assay type: cell-based; settings: Candida tropicalis, 48 h, read-out: Minimum Inhibitory Concentration (MIC)
Description: as §4

[6] = test system: C. tropicalis 519468 (urinary); experiment: Standard MIC testing in RPMI medium (Example 3); assay type: cell-based; settings: Candida tropicalis, 48 h, read-out: Minimum Inhibitory Concentration (MIC)
Description: (§5) The Minimum Inhibitory Concentration assay used in this Example was based on Jorgensen et al. (Manual of Clinical Microbiology, 7th ed. Washington, D.C: American Society for Microbiology, 1999; 1526-43). Following retrieval from −80° C. storage, fungal colonies were grown on blood agar with 5% sheep blood and were used to inoculate tryptone soya broth (TSB) for overnight growth. […] Fungal cultures at 0.5 McFarland standard were diluted ten-fold in RPMI medium and 5 μl added to the media containing wells of the microtiter plates. Plates were wrapped in parafilm and incubated at 34° C. for 48 hours. MIC values were determined as the lowest concentration at which there was no visible growth.

[7] = test system: C. tropicalis 250/03 (candidosis); experiment: Standard MIC testing in RPMI medium (Example 3); assay type: cell-based; settings: Candida tropicalis, 48 h, read-out: Minimum Inhibitory Concentration (MIC)
Description: as §5

[8] = test system: Candida albicans, CCUG 39343; experiment: Robotic MIC assay (Example 1); assay type: cell-based; settings: for Minimum Inhibitory Concentration (MIC): 24 hours; for reduction in MIC values: comparing 0 and 10% G-block
Description: (§1) A robotic MIC Assay was performed as follows. OligoG CF-5/20 were dissolved in medium (Mueller-Hinton broth or M19 broth depending on experiment) to 1.25 times of the desired assay concentrations (2, 6 and 10%). The antifungal agents under test were dissolved in medium without OligoG CF-5/20 and in medium with OligoG CF-5/20 at a concentration of 1.25 times the highest desired assay concentrations. For experiments where the effect of adding different concentrations of Na^+ was investigated, NaCl was dissolved in medium to the desired concentrations (10, 30 and 50 mM).
(§2) Two-fold serial dilutions of antifungal agents were made in medium with different concentrations of OligoG CF-5/20, and the solutions were placed in four parallel wells in Nunc 384-well micro plates (30 μl per well in Nunc 242757 microplates). A group of 8 wells with no addition of antifungal agents for each OligoG CF-5/20 concentration was included on each microplate as growth reference. To each well in the 384-well assay plates was added 7.5 μl of medium inoculated with a frozen stock culture of Candida albicans (strain CCUG 39343).
The frozen stock culture was prepared by growing the Candida strain at 34° C. for 48 h on YM-agar. 1-3 colonies from the plates were grown in 6 ml YM-broth at 34° C. for 14 h before freezing in 6% glycerol at −80° C. Each batch of frozen stock culture was then characterized in separate growth experiments using Mueller-Hinton or M19 broth to determine the minimum amount of inoculum giving satisfactory growth after 48 h under the conditions relevant for the MIC assay. This inoculation procedure is used in order to reduce day to day variation in bioassays.
(§3) The micro plates were placed in plastic bags and incubated without shaking at 34° C. The optical density at 600 nm in the microwells was measured after approximately 13, 18, 24 and 34 hours of incubation, and the relative growth yield in each well was calculated based on the growth in the reference groups.

Candida albicans = experiment: Robotic MIC assay with asthma/COPD medicaments (Example 5); assay type: cell-based; settings: Mueller-Hinton broth; for MIC values: 24 hours
Description: as §1, §2, §3
The robotic assay described in Example 1 was employed in this Example. […] The concentration utilized for the different components were based on information from Manocha et al. (2006).
In this assay only Mueller-Hinton broth was used since this is the medium specified for standardized MIC assays (Jorgensen et al., 1999).

OC(Cn1cncn1)(Cn1cncn1)c1ccc(F)cc1F [Fluconazole, fluconazole]
128 µg/mL: MIC ([2]; 0% OligoG) | MIC ([5]; 0% OligoG) | MIC ([5]; 2% OligoG)
1 µg/mL: MIC ([1]; 10% OligoG) | MIC ([5]; 10% OligoG) | MIC ([6]; 10% OligoG)
32 µg/mL: MIC ([2]; 10% OligoG)
4 µg/mL: Minimum Inhibitory Concentration (MIC) ([3]; 0% OligoG) | Minimum Inhibitory Concentration (MIC) ([3]; 6% OligoG) | Minimum Inhibitory Concentration (MIC) ([3]; 10% OligoG) | MIC ([3]; Pichia kudriavzevii, 2% OligoG, read-out: Minimum Inhibitory Concentration (MIC)) | MIC ([5]; 6% OligoG) | MIC ([7]; 0% OligoG) | MIC ([7]; 2% OligoG) | MIC ([7]; 6% OligoG)
64 µg/mL: MIC ([2]; 2% OligoG) | MIC ([2]; 6% OligoG)
2 µg/mL: MIC ([1]; 0% OligoG) | MIC ([1]; 2% OligoG) | MIC ([1]; 6% OligoG) | Minimum Inhibitory Concentration (MIC) ([4]; 0% OligoG) | Minimum Inhibitory Concentration (MIC) ([4]; 6% OligoG) | Minimum Inhibitory Concentration (MIC) ([4]; 10% OligoG) | MIC ([4]; Clavispora lusitaniae, 2% OligoG, read-out: Minimum Inhibitory Concentration (MIC)) | MIC ([6]; 6% OligoG) | MIC ([7]; 10% OligoG)

C[C@@H]1[C@H](O)[C@@H](C)/C=C/C=C/CC/C=C/C=C/C=C/C=C/C(O[C@H]2O[C@H](C)[C@@H](O)[C@H](N)[C@@H]2O)CC2O[C@](O)(CC(O)C(O)CCC(O)CC(O)CC(O)CC(=O)O[C@H]1C)CC(O)C2C(=O)O (stereo partly shown) [Nystatin, nystatin]
4 µg/mL: MIC values (Candida albicans; with Budesonide 0.01 mM, G-block 0%) | MIC values (Candida albicans; with Budesonide 0.01 mM, G-block 2%) | MIC values (Candida albicans; with Ipratropium bromide 0.01 mM, G-block 0%) | MIC values (Candida albicans; with Ipratropium bromide 1 mM, G-block 0%) | MIC values (Candida albicans; with Salbutamol 0.01 mM, G-block 0%)
0.4 µg/mL: Minimum Inhibitory Concentration (MIC) ([8]; M19, OligoG CF 5/20 10%) | Minimum Inhibitory Concentration (MIC) ([8]; Mueller-Hinton, OligoG CF 5/20 10%)
0.5 µg/mL: MIC values (Candida albicans; no medicament added, G-block 10%) | MIC values (Candida albicans; with Formoterol 0.5 mM (2% DMSO), G-block 10%) | MIC values (Candida albicans; with Ipratropium bromide 1 mM, G-block 6%)
2 µg/mL: MIC values (Candida albicans; no medicament added, G-block 0%) | MIC values (Candida albicans; no medicament added, G-block 2%) | MIC values (Candida albicans; with Budesonide 0.01 mM, G-block 6%) | MIC values (Candida albicans; with Formoterol 0.5 mM (2% DMSO), G-block 0%) | MIC values (Candida albicans; with Formoterol 0.5 mM (2% DMSO), G-block 2%) | MIC values (Candida albicans; with Ipratropium bromide 0.01 mM, G-block 2%) | MIC values (Candida albicans; with Ipratropium bromide 1 mM, G-block 2%) | MIC values (Candida albicans; with Salbutamol 0.01 mM, G-block 2%) | MIC values (Candida albicans; with Salbutamol 1 mM, G-block 0%) | MIC values (Candida albicans; with Salbutamol 1 mM, G-block 2%)
6.4 µg/mL: Minimum Inhibitory Concentration (MIC) ([8]; M19, NaCl 0 mM) | Minimum Inhibitory Concentration (MIC) ([8]; M19, OligoG CF 5/20 0%) | Minimum Inhibitory Concentration (MIC) ([8]; Mueller-Hinton, NaCl 0 mM) | Minimum Inhibitory Concentration (MIC) ([8]; Mueller-Hinton, NaCl 10 mM) | Minimum Inhibitory Concentration (MIC) ([8]; Mueller-Hinton, NaCl 30 mM) | Minimum Inhibitory Concentration (MIC) ([8]; Mueller-Hinton, NaCl 50 mM)
reduction in MIC values: effect of addition of OligoG CF-5/20 on MIC values ([8]; both media tested (M19, Mueller-Hinton))
3.2 µg/mL: Minimum Inhibitory Concentration (MIC) ([8]; M19, NaCl 30 mM) | Minimum Inhibitory Concentration (MIC) ([8]; Mueller-Hinton, OligoG CF 5/20 0%) | Minimum Inhibitory Concentration (MIC) ([8]; Mueller-Hinton, OligoG CF 5/20 2%)
16 ×: reduction in MIC values ([8]; M19)
0.8 µg/mL: Minimum Inhibitory Concentration (MIC) ([8]; M19, OligoG CF 5/20 6%) | Minimum Inhibitory Concentration (MIC) ([8]; Mueller-Hinton, OligoG CF 5/20 6%)
1.6 µg/mL: Minimum Inhibitory Concentration (MIC) ([8]; M19, NaCl 50 mM) | Minimum Inhibitory Concentration (MIC) ([8]; M19, OligoG CF 5/20 2%)
4 ×: reduction in MIC values (Candida albicans; addition of 10% OligoG CF-5/20 compared to without OligoG CF-5/20)
0.25 µg/mL: MIC values (Candida albicans; with Ipratropium bromide 0.01 mM, G-block 10%) | MIC values (Candida albicans; with Ipratropium bromide 1 mM, G-block 10%) | MIC values (Candida albicans; with Salbutamol 0.01 mM, G-block 10%) | MIC values (Candida albicans; with Salbutamol 1 mM, G-block 10%)
8 ×: reduction in MIC values ([8]; Mueller-Hinton)
1 µg/mL: MIC values (Candida albicans; no medicament added, G-block 6%) | MIC values (Candida albicans; with Budesonide 0.01 mM, G-block 10%) | MIC values (Candida albicans; with Formoterol 0.5 mM (2% DMSO), G-block 6%) | MIC values (Candida albicans; with Ipratropium bromide 0.01 mM, G-block 6%) | MIC values (Candida albicans; with Salbutamol 0.01 mM, G-block 6%) | MIC values (Candida albicans; with Salbutamol 1 mM, G-block 6%)
